Experimental data reported in patent US20100267561A1, “HERBICIDAL PYRIDAZINONE DERIVATIVES” (priority 2007, published 2010).

Assays:
Test in all cases: Test B pre-/postemergence plant response
Assay type in all cases: in vivo
[1] = test system: Russian thistle (Salsola iberica); details: Preemergence; for Russian Thistle plant response rating: scale 0 to 100
Summary of the method: (§1)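 Preemergence and postemergence (plants 2-18 cm, 1- to 4-leaf stage) applications used test chemicals in a non-phytotoxic solvent with surfactant. Plants were held in a greenhouse 13 to 15 days, then rated visually against controls on a 0-100 scale (0 no effect, 100 complete control).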

[2] = test system: blackgrass (Alopecurus myosuroides); details: for Blackgrass plant response rating: 8 g ai/ha
Summary of the method: as §1

[3] = test system: cocklebur (Xanthium strumarium); details: for Cocklebur plant response rating: 8 g ai/ha
Summary of the method: as §1

[4] = test system: common (oilseed) sunflower (Helianthus annuus); details: Preemergence; for Sunflower plant response rating: scale 0 to 100
Summary of the method: as §1

[5] = test system: common ragweed (Ambrosia elation)
Summary of the method: as §1

[6] = test system: corn (Zea mays)
Summary of the method: as §1

[7] = test system: downy bromegrass (Bromus tectorum); details: for Bromegrass, Downy plant response rating: 8 g ai/ha
Summary of the method: as §1

[8] = test system: eastern black (E.B.) nightshade (Solanum ptycanthum); details: Preemergence; for Nightshade, E. B. plant response rating: scale 0 to 100
Summary of the method: as §1

[9] = test system: green foxtail (Setaria viridis)
Summary of the method: as §1

[10] = test system: surinam grass (Brachiaria decumbens)
Summary of the method: as §1

[11] = test system: wheat (Triticum aestivum)
Summary of the method: as §1

[12] = test system: wild oat (Avena fatua)
Summary of the method: as §1

[13] = test system: woolly cupgrass (Eriochloa villosa)
Summary of the method: as §1

[14] = test system: yellow nutsedge (Cyperus esculentus)
Summary of the method: as §1

[15] = 31 g ai/ha, scale 0 to 100 (0 no effect, 100 complete control)
[16] = 62 g ai/ha, 0 to 100 scale, 0 no effect, 100 complete control
[17] = Postemergence, 16 g ai/ha, scale 0 to 100
[18] = Postemergence, 31 g ai/ha, scale 0 to 100
[19] = Postemergence, 62 g ai/ha, scale 0 to 100, 0 no effect, 100 complete control
[20] = Preemergence, 16 g ai/ha, scale 0 to 100 (0 no effect, 100 complete control)
[21] = Preemergence, 31 g ai/ha, scale 0 to 100 (0 no effect, 100 complete control)
[22] = Preemergence, 62 g ai/ha, 0 to 100 scale, 0 no effect, 100 complete control
[23] = 8 g ai/ha, postemergence, 0-100 scale
[24] = Preemergence, 8 g ai/ha, scale 0 to 100
[25] = Preemergence, 16 g ai/ha, scale 0 to 100

CCCC(=O)Oc1cnn(C)c(=O)c1-n1nc(-c2ccc(Cl)cc2)cc1C [Compound 56]
Plant response rating, Russian Thistle [1, 15]: 0 | Plant response rating, Russian Thistle [1, 16]: 0 | Russian Thistle plant response rating ([1]; 8 g ai/ha): 0 | Russian Thistle plant response rating ([1]; 16 g ai/ha): 0 | Blackgrass plant response rating ([2]; postemergence, 0-100 scale): 0 | Plant response rating, Blackgrass [2, 17]: 65 | Plant response rating, Blackgrass [2, 18]: 95 | Plant response rating, Blackgrass [2, 19]: 98 | Plant response rating, Blackgrass [2, 20]: 60 | Plant response rating, Blackgrass [2, 21]: 98 | Plant response rating, Blackgrass [2, 22]: 98 | Blackgrass plant response rating ([2]; Preemergence, scale 0 to 100): 40 | Cocklebur plant response rating ([3]; postemergence, 0-100 scale): 0 | Plant response rating, Cocklebur [3, 17]: 0 | Plant response rating, Cocklebur [3, 18]: 0 | Plant response rating, Cocklebur [3, 19]: 0 | Plant response rating, Cocklebur [3, 20]: 0 | Plant response rating, Cocklebur [3, 21]: 0 | Plant response rating, Cocklebur [3, 22]: 0 | Cocklebur plant response rating ([3]; Preemergence, scale 0 to 100): 0 | Plant response rating, Sunflower [4, 15]: 0 | Plant response rating, Sunflower [4, 16]: 0 | Sunflower plant response rating ([4]; 8 g ai/ha): 0 | Sunflower plant response rating ([4]; 16 g ai/ha): 0 | Ragweed plant response rating [5, 23]: 0 | Plant response rating, Ragweed [5, 17]: 0 | Plant response rating, Ragweed [5, 18]: 0 | Plant response rating, Ragweed [5, 19]: 0 | Plant response rating, Ragweed [5, 21]: 0 | Plant response rating, Ragweed [5, 22]: 0 | Ragweed plant response rating [5, 24]: 0 | Ragweed plant response rating [5, 25]: 0 | Corn plant response rating [6, 23]: 75 | Plant response rating, Corn [6, 17]: 85 | Plant response rating, Corn [6, 18]: 95 | Plant response rating, Corn [6, 19]: 95 | Plant response rating, Corn [6, 21]: 95 | Plant response rating, Corn [6, 22]: 95 | Corn plant response rating [6, 24]: 0 | Corn plant response rating [6, 25]: 10 | Bromegrass, Downy plant response rating ([7]; postemergence, 0-100 scale): 0 | Plant response rating, Bromegrass, Downy [7, 17]: 0 | Plant response rating, Bromegrass, Downy [7, 18]: 0 | Plant response rating, Bromegrass, Downy [7, 19]: 0 | Plant response rating, Bromegrass, Downy [7, 20]: 20 | Plant response rating, Bromegrass, Downy [7, 21]: 45 | Plant response rating, Bromegrass, Downy [7, 22]: 75 | Bromegrass, Downy plant response rating ([7]; Preemergence, scale 0 to 100): 0 | Plant response rating, Nightshade, E. B. [8, 15]: 0 | Plant response rating, Nightshade, E. B. [8, 16]: 20 | Nightshade, E. B. plant response rating ([8]; 8 g ai/ha): 0 | Nightshade, E. B. plant response rating ([8]; 16 g ai/ha): 0 | Foxtail, Green plant response rating [9, 23]: 50 | Plant response rating, Foxtail, Green [9, 17]: 90 | Plant response rating, Foxtail, Green [9, 18]: 90 | Plant response rating, Foxtail, Green [9, 19]: 100 | Plant response rating, Foxtail, Green [9, 21]: 100 | Plant response rating, Foxtail, Green [9, 22]: 100 | Foxtail, Green plant response rating [9, 24]: 65 | Foxtail, Green plant response rating [9, 25]: 65 | Surinam Grass plant response rating [10, 23]: 70 | Plant response rating, Surinam Grass [10, 17]: 75 | Plant response rating, Surinam Grass [10, 18]: 98 | Plant response rating, Surinam Grass [10, 19]: 100 | Plant response rating, Surinam Grass [10, 21]: 100 | Plant response rating, Surinam Grass [10, 22]: 100 | Surinam Grass plant response rating [10, 24]: 75 | Surinam Grass plant response rating [10, 25]: 90 | Wheat plant response rating [11, 23]: 5 | Plant response rating, Wheat [11, 17]: 65 | Plant response rating, Wheat [11, 18]: 80 | Plant response rating, Wheat [11, 19]: 90 | Plant response rating, Wheat [11, 21]: 35 | Plant response rating, Wheat [11, 22]: 80 | Wheat plant response rating [11, 25]: 10 | Oat, Wild plant response rating [12, 23]: 5 | Plant response rating, Oat, Wild [12, 17]: 85 | Plant response rating, Oat, Wild [12, 18]: 90 | Plant response rating, Oat, Wild [12, 19]: 90 | Plant response rating, Oat, Wild [12, 21]: 60 | Plant response rating, Oat, Wild [12, 22]: 90 | Oat, Wild plant response rating [12, 24]: 0 | Oat, Wild plant response rating [12, 25]: 50 | Cupgrass, Woolly plant response rating [13, 23]: 95 | Plant response rating, Cupgrass, Woolly [13, 17]: 100 | Plant response rating, Cupgrass, Woolly [13, 18]: 100 | Plant response rating, Cupgrass, Woolly [13, 19]: 100 | Plant response rating, Cupgrass, Woolly [13, 21]: 100 | Plant response rating, Cupgrass, Woolly [13, 22]: 100 | Cupgrass, Woolly plant response rating [13, 24]: 0 | Cupgrass, Woolly plant response rating [13, 25]: 80 | Nutsedge, Yellow plant response rating [14, 23]: 0 | Plant response rating, Nutsedge, Yellow [14, 17]: 0 | Plant response rating, Nutsedge, Yellow [14, 18]: 0 | Plant response rating, Nutsedge, Yellow [14, 19]: 0 | Plant response rating, Nutsedge, Yellow [14, 21]: 0 | Plant response rating, Nutsedge, Yellow [14, 22]: 0 | Nutsedge, Yellow plant response rating [14, 24]: 0 | Nutsedge, Yellow plant response rating [14, 25]: 0
